The values below come from the OligoGym collection.

The target of this series is DGAT2. To be noted: ASO.

“And” between values parts separate entries of the source, which are not always exact repeats. Equal entries are not always repeated. After the bases stand the sugars from the 5' end (letter, count) and the backbone: PS all phosphorothioate, else s phosphorothioate and o phosphodiester by linkage. Methylation of C is not given here. e = 2'-O-(2-methoxyethyl) (MOE); d = 2'-deoxy (DNA)

With “GTGCTTTCTAAGTACCCTTT (sugars e5 d10 e5, PS)”, the target mRNA inhibition reads like this: (HepG2, 2.5 µM) 81% and 78%; (HepG2, 10 µM) 92% and 89%.

With “CTGCAGGCCACTCCCAGTAC (sugars e5 d10 e5, PS)”, the target mRNA inhibition (HepG2, 0.12 µM) was 40%.

For the sequence “GTGATTATTCTAAAACTCAA (sugars e5 d10 e5, PS)”, the target mRNA inhibition reads like this: (HepG2, 2.5 µM) 34%; (HepG2, 10 µM) 71%.

“TGAGGTTTAGGCTATGGTCT (sugars e5 d10 e5, PS)” yielded a target mRNA inhibition (HepG2, 2.5 µM) of 66% and a target mRNA inhibition (HepG2, 10 µM) of 77%.

Under “HepG2, 0.12 µM”, “AATTTCTTTTAAATAACCCA (sugars e5 d10 e5, PS)” had a target mRNA inhibition of 0%.

On to “GCCACTCAGCCTTGGAGCCA (sugars e5 d10 e5, PS)”, for which the target mRNA inhibition is, setting by setting: (HepG2, 2.5 µM) 90% and 83%; (HepG2, 10 µM) 86% and 85%.

In turn, “AAGGACAGAGGTTCAACATC (sugars e5 d10 e5, PS)” displayed a target mRNA inhibition (HepG2, 2.5 µM) of 7% and a target mRNA inhibition (HepG2, 10 µM) of 67%.

With “GCGACAGCCCTGTGCCAGCC (sugars e5 d10 e5, PS)”, the target mRNA inhibition is, setting by setting: (HepG2, 2.5 µM) 72%; (HepG2, 10 µM) 99%.

Consider “GTTGGTCTTTTTGGCTGCCC (sugars e5 d10 e5, PS)”, for which the target mRNA inhibition (HepG2, 2.5 µM) is 77% and 67%; the target mRNA inhibition (HepG2, 10 µM) was 88% and 86%.

The sequence “AGCTCAGAGACTCAGCCGCA (sugars e2 d13 e5, PS)” returned a target mRNA inhibition (HepG2, 0.12 µM) of 86%.

Consider “GACAGCTGTGATGACTTCCC (sugars e5 d10 e5, PS)”, for which the target mRNA inhibition was found to be 73% (HepG2, 2.5 µM) and 87% (HepG2, 10 µM).

For “AAACACCAGCCAAGTGAAGT (sugars e5 d10 e5, PS)”, the target mRNA inhibition (HepG2, 0.12 µM) was 9%.

Take “CCTAAGGAGTGAGGGTATCT (sugars e5 d10 e5, PS)”: the target mRNA inhibition runs as follows: (HepG2, 2.5 µM) 39% and 50%; (HepG2, 10 µM) 87% and 92%.

On to “ATAGTTCCTGGTGGTCAGCA (sugars e5 d10 e5, PS)”, for which the target mRNA inhibition (HepG2, 0.12 µM) came out at 46%.

Take “TATAATTTCTTTTAAATAAC (sugars e5 d10 e5, PS)”: the target mRNA inhibition (HepG2, 0.12 µM) came to 0%.

For “CAGCACTAATTTTTACAACT (sugars e5 d10 e5, PS)”, the target mRNA inhibition is 86% (HepG2, 2.5 µM) and 95% (HepG2, 10 µM).

As to “CCTTAGCTTTAATCCAGGAT (sugars e5 d10 e5, PS)”, the target mRNA inhibition reads like this: (HepG2, 2.5 µM) 70%; (HepG2, 10 µM) 89%.

As for “ATGCCTGAGGGCAGCAGTGT (sugars e5 d10 e5, PS)”, where the note is “HepG2, 0.12 µM”, the target mRNA inhibition was 45%.

Consider “CACAGTCATCTTGTGTACAT (sugars e5 d10 e5, PS)”, for which the target mRNA inhibition by setting is: (HepG2, 2.5 µM) 74% and 76%; (HepG2, 10 µM) 92% and 93%.

“TCCATGTCAGAGAGGCTCAG (sugars e5 d10 e5, PS)” registered a target mRNA inhibition (HepG2, 2.5 µM) of 54% and a target mRNA inhibition (HepG2, 10 µM) of 91%.

For the setting “HepG2, 0.12 µM”, “CAACAGGCTCTGGTTCCATG (sugars e5 d10 e5, PS)” gave a target mRNA inhibition of 56%.

With “ATGGTGTGTTGGCTCCCTGT (sugars e5 d10 e5, PS)”, the target mRNA inhibition was determined as 53% (HepG2, 2.5 µM) and 53% (HepG2, 10 µM).

For “GGACCCACTGGAGCACTGAG (sugars e3 d14 e3, PS)”, the target mRNA inhibition reads like this: (HepG2, 0.12 µM) 82%; (HepG2, 2.5 µM) 29%; (HepG2, 10 µM) 42%; (HepG2, 20 µM) 71%.

With “GCTACTGGCATTGCTCCTCC (sugars e5 d10 e5, PS)”, the target mRNA inhibition runs as follows: (HepG2, 2.5 µM) 42%; (HepG2, 10 µM) 81%.

As for “CTGAATCAAAATCTGCATTT (sugars e5 d10 e5, PS)”, the target mRNA inhibition (HepG2, 0.12 µM) turned out to be 28%.

On to “CTGGTGGTCAGCAGGTTGTG (sugars e5 d10 e5, PS)”, for which the target mRNA inhibition (HepG2, 0.12 µM) was determined as 57%.

“TCTCATTCATCTGGGCCCTG (sugars e5 d10 e5, PS)” registered a target mRNA inhibition (HepG2, 2.5 µM) of 65% and a target mRNA inhibition (HepG2, 10 µM) of 78%.

Turning to “AAAGCAAATAGTCTATGGTG (sugars e5 d10 e5, PS)”, the target mRNA inhibition (HepG2, 0.12 µM) turned out to be 46%.

As for “ATGAGCTCTCAAGTCTTCCT (sugars e5 d10 e5, PS)”, the target mRNA inhibition (HepG2, 2.5 µM) came out at 67% and the target mRNA inhibition (HepG2, 10 µM) is 93%.

As to “GCTTTAATCCAGGATTGTCA (sugars e5 d10 e5, PS)”, the target mRNA inhibition (HepG2, 2.5 µM) was 73% and 76% and 82%; the target mRNA inhibition (HepG2, 10 µM) is 91% and 88% and 93%.

“GAAGGCACAGAAAAGTGAGG (sugars e5 d10 e5, PS)” had a target mRNA inhibition (HepG2, 0.12 µM) of 11%.

Regarding “CAGGCAGGTGTCAGAGGGCT (sugars e5 d10 e5, PS)”, where the note is “HepG2, 0.12 µM”, the target mRNA inhibition is 21%.

Regarding “GCTCAGATCACTCTGCACAG (sugars e5 d10 e5, PS)”, the target mRNA inhibition by setting is: (HepG2, 2.5 µM) 77% and 81% and 82%; (HepG2, 10 µM) 90% and 86% and 89%.

Take “GTTCCTGGTGGTCAGCAGGT (sugars e5 d10 e5, PS)”: the target mRNA inhibition (HepG2, 0.12 µM) was 63%.

On to “TGGCCTGGATGGCAACCTAA (sugars e5 d10 e5, PS)”, for which the target mRNA inhibition by setting is: (HepG2, 2.5 µM) 46%; (HepG2, 10 µM) 83%.

With “GAGCTCTCAAGTCTTCC (sugars e3 d10 e4, PS)”, the target mRNA inhibition by setting is: (HepG2, 2.5 µM) 55% and 64%; (HepG2, 10 µM) 86% and 87%.
